According to patent US9321756B2, “Azole compounds as PIM inhibitors” (priority 2011, dated 2016):
Where two headings read alike, the source gives them in different places.

Experiments:
Assay type in all cases: biochemical
[1] = biological target: full length recombinant Pim-1 (Homo sapiens (Human), UniProt P11309); test: Pim enzyme assay (HTRF, phosphorylation of biotinylated-BAD (S112) peptide), Pim-1; details: Pim-1 enzyme assay; read-out: Pim_1_IC50
[2] = biological target: full length recombinant Pim-2 (Homo sapiens (Human), UniProt Q9P1W9); test: Pim enzyme assay (HTRF, phosphorylation of biotinylated-BAD (S112) peptide), Pim-2; details: read-out: Pim2_IC50
[3] = biological target: full length recombinant Pim-3 (Homo sapiens (Human), UniProt Q86V86); test: Pim enzyme assay (HTRF, phosphorylation of biotinylated-BAD (S112) peptide), Pim-3; details: read-out: Pim3 IC50
Excerpt: Pim-3 was purchased from Millipore (UK).
The phosphorylation of biotinylated-BAD (S112) peptide by full length recombinant Pim-1, Pim-2, or Pim-3 protein was detected with streptavidin:Allophycocyanin (APC) conjugate and a europium (Eu) labeled antibody directed against phosphorylated-BAD (S112). […] The fluorescence is directly proportional to the amount of phosphorylated BAD peptide present in the reaction.
A reference compound was included on each assay plate in order to validate that plate; on one plate of every assay run, two additional reference compounds were included.
The final buffer conditions were as follows: 60 mM Hepes, pH 7.0, 0.05% BSA, 2 mM DTT. Incubations were carried out at RT (22° C.) for 2 h for Pim-1, 1 h and 30 min for Pim-3, and 45 min for Pim-2. The reaction was then stopped by the addition of 3 mM EDTA, and fluorescence was measured by an HTRF® Rubystar microplate reader. For each plate, percent of control (POC) values were calculated for each well. Values for the IC50 IP were estimated using a standard 4-parameter logistic model.

Chain of full length recombinant Pim-2 (Q9P1W9 whole entry): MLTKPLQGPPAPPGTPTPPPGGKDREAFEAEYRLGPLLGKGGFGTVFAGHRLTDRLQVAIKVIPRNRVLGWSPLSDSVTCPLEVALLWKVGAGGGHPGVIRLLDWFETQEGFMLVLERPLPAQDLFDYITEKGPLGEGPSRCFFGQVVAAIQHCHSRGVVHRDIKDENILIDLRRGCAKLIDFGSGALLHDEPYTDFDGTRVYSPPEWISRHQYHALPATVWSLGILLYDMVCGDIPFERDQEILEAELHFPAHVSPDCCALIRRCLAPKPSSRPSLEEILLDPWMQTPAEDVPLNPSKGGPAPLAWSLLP
Chain of full length recombinant Pim-1 (P11309 whole entry): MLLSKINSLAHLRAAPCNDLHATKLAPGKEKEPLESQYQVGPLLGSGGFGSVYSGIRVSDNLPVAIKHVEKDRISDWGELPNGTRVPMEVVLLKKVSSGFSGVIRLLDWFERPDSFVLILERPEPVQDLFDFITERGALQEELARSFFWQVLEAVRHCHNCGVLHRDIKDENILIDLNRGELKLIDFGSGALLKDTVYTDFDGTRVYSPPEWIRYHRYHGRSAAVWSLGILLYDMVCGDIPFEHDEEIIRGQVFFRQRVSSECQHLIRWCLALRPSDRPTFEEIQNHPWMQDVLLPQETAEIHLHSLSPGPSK

Nc1nnc(-c2ccc3[nH]cc(-c4nccc(C(F)(F)F)n4)c3c2)o1 [Example 96, 5-(3-(4-(trifluoromethyl)-2-pyrimidinyl)-1H-indol-5-yl)-1,3,4-oxadiazol-2-amine]
IC50 [1]: 67 nM | IC50 ([2]; Pim-2 enzyme assay): 31.9 nM | IC50 ([3]; Pim-3 enzyme assay): 12 nM

Fc1ccccc1-c1c[nH]c2ccc(-c3nnc(NCc4ccc5[nH]ccc5c4)s3)cc12 [Example 142, 5-(3-(2-fluorophenyl)-1H-indol-5-yl)-N-(1H-indol-5-ylmethyl)-1,3,4-thiadiazol-2-amine]
IC50 [1]: 109 nM | IC50 ([2]; Pim-2 enzyme assay): 1480 nM | IC50 ([3]; Pim-3 enzyme assay): 59.5 nM

Cc1nnc2n1CCN(c1cccc(-c3c[nH]c4ccc(-c5nnc(N)s5)cc34)n1)C2 [Example 25, 5-(3-(6-(3-methyl-5,6-dihydro-[1,2,4]triazolo[4,3-a]pyrazin-7(8H)-yl)pyridin-2-yl)-1H-indol-5-yl)-1,3,4-thiadiazol-2-amine 2,2,2-trifluoroacetate]
IC50 [1]: 17.5 nM | IC50 ([2]; Pim-2 enzyme assay): 88.7 nM | IC50 ([3]; Pim-3 enzyme assay): 3.02 nM

Nc1nnc(-c2ccc3[nH]cc(-c4cnc(N5CCCC5=O)cn4)c3c2)s1 [Example 194, 1-(5-(5-(5-amino-1,3,4-thiadiazol-2-yl)-1H-indol-3-yl)-2-pyrazinyl)-2-pyrrolidinone]
IC50 [1]: 945 nM | IC50 ([2]; Pim-2 enzyme assay): 1040 nM | IC50 ([3]; Pim-3 enzyme assay): 509 nM

NC(=O)c1nnc(-c2ccc3[nH]cc(-c4cccc(N5CCOCC5)n4)c3c2)s1 [Example 242, 5-(3-(6-(4-morpholinyl)-2-pyridinyl)-1H-indol-5-yl)-1,3,4-thiadiazole-2-carboxamide]
IC50 [1]: 983 nM | IC50 ([2]; Pim-2 enzyme assay): > 3000 nM | IC50 ([3]; Pim-3 enzyme assay): 351 nM

Fc1ccccc1-c1c[nH]c2ccc(-c3nnc(NCc4ccccc4)s3)cc12 [Example 149, N-benzyl-5-(3-(2-fluorophenyl)-1H-indol-5-yl)-1,3,4-thiadiazol-2-amine]
IC50 [1]: 1050 nM | IC50 ([2]; Pim-2 enzyme assay): > 3000 nM | IC50 ([3]; Pim-3 enzyme assay): 522 nM

CC(Nc1nnc(-c2ccc3[nH]cc(-c4ncccn4)c3c2)o1)c1ccccc1 (stereo not drawn) [Example 266, N-(1-phenylethyl)-5-(3-(2-pyrimidinyl)-1H-indol-5-yl)-1,3,4-oxadiazol-2-amine]
IC50 [1]: 64.8 nM | IC50 ([2]; Pim-2 enzyme assay): 229 nM | IC50 ([3]; Pim-3 enzyme assay): 43.6 nM

Nc1nnc(-c2ccc3[nH]cc(-c4cncc(Cl)n4)c3c2)o1 [Example 102, 5-(3-(6-chloro-2-pyrazinyl)-1H-indol-5-yl)-1,3,4-oxadiazol-2-amine]
IC50 [1]: 157 nM | IC50 ([2]; Pim-2 enzyme assay): 146 nM | IC50 ([3]; Pim-3 enzyme assay): 29.2 nM

Nc1nnc(-c2ccc3[nH]cc(-c4cnc5ccccc5c4)c3c2)s1 [Example 21, 5-(3-(quinolin-3-yl)-1H-indol-5-yl)-1,3,4-thiadiazol-2-amine]
IC50 [1]: 178 nM | IC50 ([2]; Pim-2 enzyme assay): 1010 nM | IC50 ([3]; Pim-3 enzyme assay): 179 nM

c1cc(-c2nnc(-c3ccc4[nH]cc(-c5cncc(C6CC6)n5)c4c3)o2)[nH]n1 [Example 39, 2-(3-(6-Cyclopropylpyrazin-2-yl)-1H-indol-5-yl)-5-(1H-pyrazol-5-yl)-1,3,4-oxadiazole 2,2,2-trifluoroacetate]
IC50 [1]: 51.4 nM | IC50 [2]: 158 nM | IC50 [3]: 19.8 nM

Cc1[nH]c2ccc(CNc3nnc(-c4ccc5[nH]cc(-c6ccc(F)cc6F)c5c4)s3)cc2c1C [Example 147, 5-(3-(2,4-difluorophenyl)-1H-indol-5-yl)-N-((2,3-dimethyl-1H-indol-5-yl)methyl)-1,3,4-thiadiazol-2-amine]
IC50 [1]: 513 nM | IC50 ([2]; Pim-2 enzyme assay): > 3000 nM | IC50 ([3]; Pim-3 enzyme assay): 634 nM

CNc1nnc(-c2ccc3[nH]cc(-c4ccn[nH]4)c3c2)s1 [Example 222, N-methyl-5-(3-(1H-pyrazol-5-yl)-1H-indol-5-yl)-1,3,4-thiadiazol-2-amine]
IC50 [1]: 1010 nM | IC50 ([2]; Pim-2 enzyme assay): 1440 nM | IC50 ([3]; Pim-3 enzyme assay): 268 nM

CNc1nnc(-c2ccc3[nH]cc(-c4cn[nH]c4)c3c2)s1 [Example 218, N-methyl-5-(3-(1H-pyrazol-4-yl)-1H-indol-5-yl)-1,3,4-thiadiazol-2-amine]
IC50 [1]: 241 nM | IC50 ([2]; Pim-2 enzyme assay): 623 nM | IC50 ([3]; Pim-3 enzyme assay): 123 nM

COC[C@@H]1CCCN1c1ccnc(-c2c[nH]c3ccc(-c4nnc(N)o4)cc23)n1 [Example 109, 5-(3-(4-((2S)-2-(methoxymethyl)-1-pyrrolidinyl)-2-pyrimidinyl)-1H-indol-5-yl)-1,3,4-oxadiazol-2-amine]
IC50 [1]: 32.2 nM | IC50 ([2]; Pim-2 enzyme assay): 26.8 nM | IC50 ([3]; Pim-3 enzyme assay): 13 nM

CNc1nnc(-c2ccc3[nH]cc(-c4cccc(C(F)(F)F)c4)c3c2)s1 [Example 224, N-methyl-5-(3-(3-(trifluoromethyl)phenyl)-1H-indol-5-yl)-1,3,4-thiadiazol-2-amine]
IC50 [1]: 1890 nM | IC50 ([2]; Pim-2 enzyme assay): > 3000 nM | IC50 ([3]; Pim-3 enzyme assay): 207 nM
